Assay results taken from patent US20020042374A1, “METHOD OF TREATING INSULIN INSENSITIVITY AND SYNDROME X” (priority 1997, published 2002).
Where two headings read alike, the source gives them in different places. Positions of bridges follow the written chain, without caps; N, C: chain ends. Non-standard residues stand in square brackets, D forms with d. Residues, ends and D or L forms follow the SMILES beside them.

Legend:
human SSTR-1 = human SSTR-1 (Homo sapiens, UniProt P30872); experiment: Somatostatin receptor binding assay, hSSTR-1
human SSTR-2 = human SSTR-2 (Homo sapiens, UniProt P30874); experiment: Somatostatin receptor binding assay, hSSTR-2
human SSTR-3 = human SSTR-3 (Homo sapiens, UniProt P32745); experiment: Somatostatin receptor binding assay, hSSTR-3
human SSTR-4 = human SSTR-4 (Homo sapiens, UniProt P31391); experiment: Somatostatin receptor binding assay, hSSTR-4
human SSTR-5 = human SSTR-5 (Homo sapiens, UniProt P35346); experiment: Somatostatin receptor binding assay, hSSTR-5
[1] = system: fatty (fa/fa) Zucker rats; experiment: Insulin sensitivity study, oral glucose challenge after one week treatment; assay type: in vivo, rat; details: 3 mg/kg s.c. twice daily, 7 days
Experimental: Male fatty Zucker rats (Harlan-Olac, Bicester, Oxon, U.K.), which were 15-17 weeks old, were randomly divided into two groups. The animals were house in pairs in a normal 12 hour light:12 hour darkness cycle at 20±2° C. and fed a standard laboratory rat diet (Beekay rat and mouse diet, Bantin & Kingman, Hull, Humberside, U.K.) ad libitum. For the group assigned to receive drug treatment, the rats received BIM-23268C at 3 mg/kg, by subcutaneous injection, twice a day at 10:00 AM and 5:00 PM. The other group, the control group, was treated with a subcutaneous injection of 0.lml/100 g of saline twice a day at 10:00 AM and 5:00 PM. […] On the last day of treatment, at 5:00 PM food was removed, and the rats were fasted overnight.
A method for assessing insulin sensitivity is to administer an oral glucose challenge and monitoring the secretion of insulin and disposal of glucose from the blood stream over a 240 min period (Bergman, R. N., et al., Endocrine Review 6:45-86 (1985)). […] 20 μl blood samples were taken from tail vein (Abdel-Halim, S. M., et al., Diabetes 43:281-288 (1994)) at −60 min, −30 min, 0 min, 30 min, 60 min, 90 min, 120 min, and 240 min.
The 20 μl samples were taken into 380 μl of hemolysis reagents (Sigma, Poole, Dorset, UK) containing 50 mg/liter of digitonin (Cat# D-1407) and 100 mg/liter of Maleimide (M-3766). From this, 100 μl of the hemolysed blood sample was added to 0.9 ml of Tinder reagent (Sigma Enzymatic calorimetric assay for blood glucose, Cat# 315-100, Sigma Chemical Co. Ltd, Poole, Dorset, UK). Blood glucose was determined according to vendor's recommendation at 505 nm.
Insulin was measured by the conventional radioimmunoassay method as described (Dunmore, S., & Beloff-Chain, A., J Endocrinol. 92:15-21 (1982)). Samples were assayed in triplicates with a 1:30000 dilution of an insulin antiserum (from guinea pig)raised in the laboratory (Dunmore, S. J., et al., J. Endocrinol. 137:375-381 (1993), and using ^125I-labelled bovine insulin, iodinated by the chloramine T method (Sambrook, et al., Molecular Cloning- A Laboratory Manual, Ed. 2., Cold Spring Harbor Laboratory Press, 1989). Rat insulin (2000U/0.1 ml, Novo Nordisk Laboratories, Basingstoke, Hants, U.K.) was used as a standard in the assay. The standards and samples were diluted in assay buffer containing NaH2PO4 5.7 g/L, bovine serum albumin (Sigma A4378, Sigma Chemical Co. Ltd., Poole, Dorset, UK) 5.0 g/L, NaN3 1.0 g/L buffered to pH 7.4). Antibody-bound insulin was separated on from free insulin by the addition of a second antibody (donkey anti-guinea pig Ig) coated on cellulose, Sac-Cel (IDS, Boldon, Tyne & Wear, UK). The antibody-bound insulin precipitate was separated by centrifugation. Counts bound were measured on an LKB Rackgamma solid scintillation counter.

[2] = system: Obese (fa/fa) Zucker rats; experiment: Lipidemia study, plasma glycerol and triglycerides; assay type: in vivo, rat
Experimental: Obese (fa/fa) Zucker rats were treated as in example 1 above. On the last day of treatment (day 6), food was removed at 5:00 p.m., and the rats were fasted overnight. At 9:00 a.m. the next day, the animals were subjected to a glucose challenge, given as 0.8 gram/kg of glucose orally. Periodic 400 μl of blood samples were taken from the tail vein (Peterson, R. G., ILAR News, 32:16-19 (1990)) 60 min. and 30 min. before and at 30, 60, 90, and 120 min. after the administration of the glucose challenge (0.8 gram/kg orally). Aprotinin (Traysylol, Bayer UK, Hayward's Health, W. Sussex, U.K.) and heparin (Sigma Chemical Co., Poole, Dorset, U.K.) were added to the blood samples to a final concentration of 400 KIU/ml and 100 units/ml, respectively. Plasma fractions were prepared from these samples by centrifugation at 4000×G in a microfuge, for the estimation of triglycerides and glycerol. Samples were then stored at −80° C. until assayed.
Plasma glycerol and triglycerides were determined using the Sigma Enzymatic (Tinder) calorimetric assay kit (Cat #337-B, Sigma Chemical Co., Poole, Dorset, U.K.) and measuring absorbance at 540 nm in a spectrophotometer.

[3] = system: fatty (fa/fa) Zucker rats; details: 3 mg/kg s.c. twice daily, 6 days
[4] = 3 mg/kg s.c. twice daily, 6 days, samples 30 and 60 minutes before oral glucose challenge, FIG. 1/2
[5] = throughout the 2-hour test period after oral glucose challenge

Chain of human SSTR-2 (P30874 whole entry): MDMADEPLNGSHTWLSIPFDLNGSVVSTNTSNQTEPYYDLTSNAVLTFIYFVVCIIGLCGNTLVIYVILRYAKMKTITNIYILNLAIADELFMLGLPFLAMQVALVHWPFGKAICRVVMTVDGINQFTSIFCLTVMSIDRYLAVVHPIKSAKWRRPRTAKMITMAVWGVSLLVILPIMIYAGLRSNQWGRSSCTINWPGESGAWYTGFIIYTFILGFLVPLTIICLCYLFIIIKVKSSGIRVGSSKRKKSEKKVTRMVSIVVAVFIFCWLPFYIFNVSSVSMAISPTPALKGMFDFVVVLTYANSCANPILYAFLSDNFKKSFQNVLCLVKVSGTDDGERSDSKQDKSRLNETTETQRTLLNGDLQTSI
Chain of human SSTR-1 (P30872 whole entry): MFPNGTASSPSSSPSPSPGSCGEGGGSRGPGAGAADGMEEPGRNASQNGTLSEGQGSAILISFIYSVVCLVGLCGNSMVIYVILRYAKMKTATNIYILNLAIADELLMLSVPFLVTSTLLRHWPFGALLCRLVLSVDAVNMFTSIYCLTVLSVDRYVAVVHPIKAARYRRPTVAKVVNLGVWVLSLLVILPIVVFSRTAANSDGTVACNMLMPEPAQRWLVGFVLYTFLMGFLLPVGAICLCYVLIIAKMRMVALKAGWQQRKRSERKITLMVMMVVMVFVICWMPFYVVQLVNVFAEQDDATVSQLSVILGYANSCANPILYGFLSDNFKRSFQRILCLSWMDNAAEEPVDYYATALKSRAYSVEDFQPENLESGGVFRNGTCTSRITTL
Chain of human SSTR-5 (P35346 whole entry): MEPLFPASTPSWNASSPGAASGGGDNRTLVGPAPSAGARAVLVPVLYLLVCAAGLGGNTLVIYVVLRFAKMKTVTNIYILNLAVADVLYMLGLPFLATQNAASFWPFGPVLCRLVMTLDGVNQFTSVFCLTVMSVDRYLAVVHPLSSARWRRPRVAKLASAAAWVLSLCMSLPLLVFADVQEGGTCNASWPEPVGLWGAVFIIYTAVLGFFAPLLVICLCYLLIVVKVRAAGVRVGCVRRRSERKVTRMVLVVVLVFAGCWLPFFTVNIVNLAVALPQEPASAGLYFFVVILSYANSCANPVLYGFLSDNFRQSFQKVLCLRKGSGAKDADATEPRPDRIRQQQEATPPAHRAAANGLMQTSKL
Chain of human SSTR-3 (P32745 whole entry): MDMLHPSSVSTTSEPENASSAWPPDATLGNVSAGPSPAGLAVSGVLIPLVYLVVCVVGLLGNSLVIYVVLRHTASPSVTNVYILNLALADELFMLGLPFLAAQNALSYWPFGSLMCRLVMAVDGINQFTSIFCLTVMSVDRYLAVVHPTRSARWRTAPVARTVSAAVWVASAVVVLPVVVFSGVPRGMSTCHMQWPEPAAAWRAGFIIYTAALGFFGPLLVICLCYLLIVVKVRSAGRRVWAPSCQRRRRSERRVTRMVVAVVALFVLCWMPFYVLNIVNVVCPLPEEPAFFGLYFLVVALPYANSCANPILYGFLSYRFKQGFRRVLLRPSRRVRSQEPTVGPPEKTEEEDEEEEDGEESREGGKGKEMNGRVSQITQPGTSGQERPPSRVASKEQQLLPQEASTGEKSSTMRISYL
Chain of human SSTR-4 (P31391 whole entry): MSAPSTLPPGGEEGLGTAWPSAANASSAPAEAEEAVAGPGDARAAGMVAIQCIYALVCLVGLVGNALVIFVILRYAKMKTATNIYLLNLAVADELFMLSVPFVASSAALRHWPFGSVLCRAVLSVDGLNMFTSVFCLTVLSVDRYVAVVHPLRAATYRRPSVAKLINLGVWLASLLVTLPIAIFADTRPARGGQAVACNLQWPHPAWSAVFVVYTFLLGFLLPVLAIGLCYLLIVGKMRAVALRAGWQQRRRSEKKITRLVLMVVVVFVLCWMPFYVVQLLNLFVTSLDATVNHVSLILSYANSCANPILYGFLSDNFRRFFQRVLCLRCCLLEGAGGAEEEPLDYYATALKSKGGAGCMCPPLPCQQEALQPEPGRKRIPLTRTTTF

With `C[C@@H](O)[C@@H]1NC(=O)[C@H](CCCCN)NC(=O)[C@@H](Cc2c[nH]c3ccccc23)NC(=O)[C@H](Cc2ccc(O)cc2)NC(=O)[C@H](Cc2ccccc2)NC(=O)[C@@H](N)CSSC[C@@H](C(N)=O)NC(=O)[C@H](Cc2ccccc2)NC1=O` [BIM-23295, H-Cys-Phe-Tyr-D-Trp-Lys-Thr-Phe-Cys-NH2] (H-CFY[dW]KTFC-NH2; disulfide 1-8) the Ki (human SSTR-1) was 86.9 nM, the Ki (human SSTR-2) was 6.19 nM and the Ki (human SSTR-3) was 9.7 nM. For the same compound, the Ki (human SSTR-4) was 3.4 nM and the Ki (human SSTR-5) was 0.34 nM.

Compound `C[C@@H](O)[C@@H]1NC(=O)[C@H](CCCCN)NC(=O)[C@@H](Cc2c[nH]c3ccccc23)NC(=O)[C@H](Cc2ccc(O)c(I)c2)NC(=O)[C@H](Cc2ccccc2)NC(=O)[C@@H](N)CSSC[C@@H](C(N)=O)NC(=O)[C@H](Cc2ccccc2)NC1=O` [BIM-23313, H-Cys-Phe-Tyr(I)-D-Trp-Lys-Thr-Phe-Cys-NH2] has a Ki (human SSTR-1; membranes of transfected CHO-K1 cells, [125I-Tyr11]somatostatin-14 0.05 nM, read-out: Ki hSSTR-1) of 15.1 nM.

In the case of `NCCCC[C@@H]1NC(=O)[C@@H](Cc2c[nH]c3ccccc23)NC(=O)[C@H](Cc2ccccc2)NC(=O)[C@H](Cc2ccccc2)NC(=O)[C@@H](N)CSSC[C@@H](C(N)=O)NC(=O)[C@H](Cc2ccccc2)NC(=O)[C@H](CO)NC1=O` [BIM-23284, H-Cys-Phe-Phe-D-Trp-Lys-Ser-Phe-Cys-NH2] (H-CFF[dW]KSFC-NH2; disulfide 1-8), the Ki (human SSTR-1) is reported as 27.9 nM, the Ki (human SSTR-2) is reported as 19.3 nM and the Ki (human SSTR-3) is reported as 35.6 nM. The Ki (human SSTR-4) was 58.6 nM and the Ki (human SSTR-5) was 0.85 nM.

For `C[C@@H](O)[C@@H]1NC(=O)[C@H](CCCCN)NC(=O)[C@@H](Cc2c[nH]c3ccccc23)NC(=O)[C@H](Cc2ccccc2)NC(=O)[C@H](Cc2ccccc2)NC(=O)[C@@H](N)CSSC[C@@H](C(N)=O)NC(=O)[C@H](Cc2ccccc2)NC1=O` [BIM-23268, H-Cys-Phe-Phe-D-Trp-Lys-Thr-Phe-Cys-NH2] (H-CFF[dW]KTFC-NH2; disulfide 1-8), the Ki (human SSTR-1; read-out: Ki hSSTR-1) was 1230 nM, the Ki (human SSTR-2; read-out: Ki hSSTR-2) was 15.1 nM and the Ki (human SSTR-5; read-out: Ki hSSTR-5) was 0.42 nM. For the same compound, the insulin-sensitivity [1] was “produced an improvement in insulin-sensitivity”, the glucose tolerance ([1]; oral glucose 0.8 g/kg after overnight fast) was “did not show an impairment in glucose tolerance” and the “glucose stimulated insulin secretion to the glucose challenge” value ([1]; oral glucose 0.8 g/kg after overnight fast, vs saline group) was “significant suppression”. The “plasma glucose profile versus untreated group” value ([1]; oral glucose 0.8 g/kg, up to 240 min) was “not significantly different”, the plasma glycerol [2, 4] was “significantly lowered” and the plasma triglycerides [2, 4] was “significantly lowered”. The hypertriglyceridemia ([2]; 6-day treatment, 3 mg/kg s.c. twice daily) was “effective in reducing hypertriglyceridemia”, the plasma glycerol [2, 5] was “significantly lower” and the plasma triglycerides [2, 5] was “significantly lower”. For the same compound, the “amount of food consumed over the entire treatment period versus control” value [3] was “no difference”, the “body weight gain versus control” value [3] was “lower” and the “toxic effect, appearance of treated group” value [3] was “appeared healthy”. For the same compound, the “group mean weight after six days” value ([3]; 413.6 at start of trial, control 414.09 to 418.89) was 413.6 and the average food consumption ([3]; control 26.0) was 25.9 g/rat/day.
